Consider one compound from PubChem BioAssay AID1794830.

This assay addresses Solute carrier family 2, facilitated glucose transporter member 1 (Homo sapiens) (UniProt P11166). Briefly: SLC2A1-mediated glucose transport in cells – cell-based, flow cytometry, glucose FRET sensor, HEK293 JumpIN TRex, wild type, dose response (AID 1794830). The note with it: HEK293 JumpIN SLC2A1-OE. A general note: In flow cytometry, cells or beads pass a laser one at a time.

Records with an inconclusive call do not appear.

Chain of Solute carrier family 2, facilitated glucose transporter member 1 (Homo sapiens) (P11166 whole entry, looked up): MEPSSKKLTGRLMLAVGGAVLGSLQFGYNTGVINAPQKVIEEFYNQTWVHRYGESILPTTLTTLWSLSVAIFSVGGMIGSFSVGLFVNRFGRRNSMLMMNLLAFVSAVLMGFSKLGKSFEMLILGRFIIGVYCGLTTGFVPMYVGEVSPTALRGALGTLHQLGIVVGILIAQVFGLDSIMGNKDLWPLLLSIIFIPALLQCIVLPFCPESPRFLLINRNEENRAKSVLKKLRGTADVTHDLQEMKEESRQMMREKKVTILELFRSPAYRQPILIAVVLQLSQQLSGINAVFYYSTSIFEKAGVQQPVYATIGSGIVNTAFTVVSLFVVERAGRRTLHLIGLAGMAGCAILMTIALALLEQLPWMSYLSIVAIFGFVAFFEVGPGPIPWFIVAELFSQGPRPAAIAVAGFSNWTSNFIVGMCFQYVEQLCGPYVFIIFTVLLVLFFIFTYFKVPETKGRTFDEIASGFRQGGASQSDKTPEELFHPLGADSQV

For `OC[C@H]1OC(O)[C@H](O)[C@@H](O)[C@@H]1O` (stereo partly specified), the EC50 (substrate transport, FRET signal increase) was 527 µM.
